Reference: patent US20120196899A1, “METHODS AND PRODUCTS FOR TREATING INFLAMMATION” (Rock Creek Pharmaceuticals, Inc., priority 2010, published 2012)
Where two headings read alike, the source gives them in different places.

Test: Plasma toxicokinetics after single i.v. bolus
Assay type: in vivo, Sprague-Dawley rats
Conditions: for concentration at 4 h / concentration at 6 h / concentration at 1 h / concentration at 2 h / concentration at 8 h / concentration at 0.5 h / half-life: Sprague-Dawley, rat, plasma; for concentration at 4 h / concentration at 6 h / concentration at 1 h / concentration at 2 h / concentration at 8 h / concentration at 0.5 h: intravenous; for half-life: iv
Protocol: Six rats (3 males and 3 females) were dosed per dose group. […] Plasma and brain homogenates were stored at −80° C. until analysis.
An additional 48 rats (24 males and 24 females) received a single intravenous dose via the tail vein at the same doses as mentioned above. At 30 and 360 minutes post administration, 6 rats (3 males and 3 females) per dose group, per time point were euthanized, bled via cardiac puncture, and perfused, and brains were collected. The brains were homogenized. Blood was spun, and plasma was collected. Plasma and brain homogenate were stored at −80° C.
Four aliquots of each dose level formulation were collected and stored at −80° C. The test compound, corresponding dose level, number of animals, and sample collection times for Phase I of the study are shown in Table 3. The test compound, corresponding dose level, number of animals, and sample collection times for Phase II of the study are shown in Table 4. The physical signs of each animal were monitored following administration of the test compound.
The animals were weighed prior to dosing and received a single i.v. dose of either test compound at a volume of 5 mL/kg. Blood was collected via the venus plexus (retro-orbital) into tubes containing (K2) EDTA. No more than 0.5 mL was collected per time point. […] The brain was removed, weighed, homogenized in sterile 0.9% saline at a volume equal to its weight, and stored at −80° C.
Plasma was separated according to the instructions for MICROTAINER® brand collection tubes (3 minutes, 2000×g). Plasma was decanted into microfuge tubes and stored at −80° C. Remaining test compound was stored at −80° C.
The signal was optimized for each compound by electrospray ionization (ESI) positive or negative ionization mode. A single ion mode (SIM) scan was used to optimize the Fragmentor for the precursor ion and a product ion analysis was used to identify the best fragment for analysis and to optimize the collision energy. The fragment which gave the most sensitive and specific signal was chosen.
Sample preparation. […] The amount of the test agent in the supernatant was determined by liquid chromatography tandem mass spectrometry (LC/MS/MS).
Analysis. Samples were analyzed by LC/MS/MS using an Agilent 6410 mass spectrometer coupled with an Agilent 1200 high pressure liquid chromatography (HPLC) and a CTC PAL chilled autosampler, all controlled by MassHunter software (Agilent). After separation on a hydrophilic interaction liquid chromatography (HILIC) HPLC column (Sepax) using an acetonitrile-ammonium acetate/acetic acid gradient system, peaks were analyzed by mass spectrometry (MS) using ESI ionization in multiple reaction monitoring (MRM) mode. MassHunter software was used to calculate the concentration of the test compounds in samples from the peak area using the appropriate calibration curves.
Calibration samples. Calibration curves were determined for both rat plasma and brain homogenate. Calibration samples were prepared by diluting a 50× stock solution of the test compound in PBS with blank matrix to the appropriate concentration and these samples were prepared as described above in the sample preparation.

[1] = 0.75 mg/kg, Concentration of anatabine in rat plasma, Anatabine 0.75 mg/kg, rat plasma, rats of group 3
[2] = 0.75 mg/kg, Concentration of anatabine in rat plasma, Anatabine 0.75 mg/kg, rat plasma, rats of group 4
[3] = 1 mg/kg, Concentration of anatabine in rat plasma, Anatabine 1.0 mg/kg, rat plasma, rats of group 5
[4] = 1 mg/kg, Concentration of anatabine in rat plasma, Anatabine 1.0 mg/kg, rat plasma, rats of group 6
[5] = both sexes, 0.1 mg/kg, Anatabine 0.1 mg/kg, male and female, read-out: Avg. Conc. rat plasma, combined male and female
[6] = both sexes, 0.1 mg/kg, Concentration of anatabine in rat plasma, Anatabine 0.1 mg/kg, Rat Plasma, individual rats
[7] = both sexes, 0.75 mg/kg, Anatabine 0.75 mg/kg, male and female, read-out: Avg. Conc. rat plasma, combined male and female
[8] = both sexes, 1 mg/kg, Anatabine 1.0 mg/kg, male and female, read-out: Avg. Conc. rat plasma, combined male and female

In the case of `C1=CCC(c2cccnc2)NC1` (racemic) [Anatabine, 1,2,3,6-tetrahydro-[2,3′]bipyridinyl], the “Avg. Conc. rat plasma” value (Anatabine 0.1 mg/kg, female, 8 hr) is reported as “<LLQ”, the “Avg. Conc. rat plasma” value (Anatabine 0.1 mg/kg, female, 24 hr) is reported as “<LLQ” and the “Avg. Conc. rat plasma, combined male and female” value (Anatabine 0.1 mg/kg, male and female, 8 hr) is reported as “<LLQ”. The “Avg. Conc. rat plasma, combined male and female” value (Anatabine 0.1 mg/kg, male and female, 24 hr) was “<LLQ”, the “Avg. Conc. rat plasma” value (Anatabine 0.1 mg/kg, male, 6 hr (1st 6 hr line)) was “<LLQ” and the “Avg. Conc. rat plasma” value (Anatabine 0.1 mg/kg, male, 8 hr) was “<LLQ”. The “Avg. Conc. rat plasma” value (Anatabine 0.1 mg/kg, male, 24 hr) was “<LLQ”, the “Avg. Conc. rat plasma” value (Anatabine 0.75 mg/kg, female, 24 hr) was “<LLQ” and the “Avg. Conc. rat plasma, combined male and female” value (Anatabine 0.75 mg/kg, male and female, 24 hr) was “<LLQ”. For the same molecule, the “Avg. Conc. rat plasma” value (Anatabine 0.75 mg/kg, male, 24 hr) was “<LLQ”, the “Avg. Conc. rat plasma” value (Anatabine 1.0 mg/kg, female, 24 hr) was “<LLQ” and the “Avg. Conc. rat plasma, combined male and female” value (Anatabine 1.0 mg/kg, male and female, 24 hr) was “<LLQ”. For the same molecule, the “Avg. Conc. rat plasma” value (Anatabine 1.0 mg/kg, male, 24 hr) was “<LLQ”, the concentration at 4 h (0.1 mg/kg, Concentration of anatabine in rat plasma, Anatabine 0.1 mg/kg, Rat Plasma, individual rats) was 3 ng/mL and the concentration at 6 h (0.1 mg/kg, Concentration of anatabine in rat plasma, Anatabine 0.1 mg/kg, rat plasma, 6 hr, rats 2A-2C) was 3 ng/mL. The concentration at 1 h [1] was 153 ng/mL, the concentration at 1 h [2] was 146 ng/mL and the concentration at 2 h [1] was 73 ng/mL. The concentration at 2 h [2] was 89 ng/mL, the concentration at 4 h [1] was 29 ng/mL and the concentration at 4 h [2] was 45 ng/mL. For the same molecule, the concentration at 8 h (0.75 mg/kg, Concentration of anatabine in rat plasma, Anatabine 0.75 mg/kg, rat plasma, 8 hr, rats of group 3) was 8 ng/mL, the concentration at 8 h (0.75 mg/kg, Concentration of anatabine in rat plasma, Anatabine 0.75 mg/kg, rat plasma, 8 hr, rats of group 4) was 10 ng/mL and the concentration at 0.5 h (1 mg/kg, Concentration of anatabine in rat plasma, Anatabine 1.0 mg/kg, rat plasma, 0.5 hr, rats of group 5) was 288 ng/mL. It also gave a concentration at 0.5 h (1 mg/kg, Concentration of anatabine in rat plasma, Anatabine 1.0 mg/kg, rat plasma, 0.5 hr, rats of group 6) of 222 ng/mL, a concentration at 1 h [3] of 257 ng/mL and a concentration at 1 h [4] of 218 ng/mL. The concentration at 2 h [3] was 121 ng/mL, the concentration at 2 h [4] was 147 ng/mL and the concentration at 4 h [3] was 36 ng/mL. The concentration at 4 h [4] was 73 ng/mL, the concentration at 6 h (1 mg/kg, Concentration of anatabine in rat plasma, Anatabine 1.0 mg/kg, rat plasma, 6 hr, rats of group 6) was 33 ng/mL and the concentration at 8 h (1 mg/kg, Concentration of anatabine in rat plasma, Anatabine 1.0 mg/kg, rat plasma, 8 hr, rats of group 5) was 8 ng/mL. The concentration at 8 h (1 mg/kg, Concentration of anatabine in rat plasma, Anatabine 1.0 mg/kg, rat plasma, 8 hr, rats of group 6) was 19 ng/mL, the t1/2 (anatabine 0.1 mg/kg single i.v., female rats) was 1.64 ± 0.59 h and the t1/2 (anatabine 0.75 mg/kg single i.v., male rats) was 1.64 ± 0.12 h. It also gave a t1/2 (anatabine 0.75 mg/kg single i.v., rat plasma, M + F) of 1.68 ± 0.09 h, a t1/2 (anatabine 1.0 mg/kg single i.v., rat plasma, M + F) of 1.64 ± 0.25 h and a concentration at 0.5 h (both sexes, 0.1 mg/kg, Anatabine 0.1 mg/kg, male and female, 0.5 hr (1st 0.5 hr line), n=12, read-out: Avg. Conc. rat plasma, combined male and female) of 22.9 ng/mL. The concentration at 1 h [5] was 8 ng/mL, the concentration at 2 h [5] was 8.7 ng/mL and the concentration at 4 h [5] was 5.2 ng/mL. It also gave a concentration at 6 h (both sexes, 0.1 mg/kg, Anatabine 0.1 mg/kg, male and female, 6 hr (1st 6 hr line), n=6, read-out: Avg. Conc. rat plasma, combined male and female) of 4.3 ng/mL, a concentration at 6 h (both sexes, 0.1 mg/kg, Anatabine 0.1 mg/kg, male and female, 6 hr (2nd 6 hr line), n=4, read-out: Avg. Conc. rat plasma, combined male and female) of 4.5 ng/mL and a concentration at 1 h [6] of 10 ng/mL. It also gave a concentration at 2 h [6] of 6 ng/mL, a concentration at 0.5 h (both sexes, 0.75 mg/kg, Anatabine 0.75 mg/kg, male and female, 0.5 hr (1st 0.5 hr line), n=12, read-out: Avg. Conc. rat plasma, combined male and female) of 257 ng/mL and a concentration at 0.5 h (both sexes, 0.75 mg/kg, Anatabine 0.75 mg/kg, male and female, 0.5 hr (2nd 0.5 hr line), n=6, read-out: Avg. Conc. rat plasma, combined male and female) of 328 ng/mL. The concentration at 1 h [7] was 162 ng/mL, the concentration at 2 h [7] was 91.7 ng/mL and the concentration at 4 h [7] was 40 ng/mL. It also gave a concentration at 6 h (both sexes, 0.75 mg/kg, Anatabine 0.75 mg/kg, male and female, 6 hr (1st 6 hr line), n=12, read-out: Avg. Conc. rat plasma, combined male and female) of 19.3 ng/mL, a concentration at 6 h (both sexes, 0.75 mg/kg, Anatabine 0.75 mg/kg, male and female, 6 hr (2nd 6 hr line), n=6, read-out: Avg. Conc. rat plasma, combined male and female) of 22.5 ng/mL and a concentration at 8 h (both sexes, 0.75 mg/kg, Anatabine 0.75 mg/kg, male and female, 8 hr, read-out: Avg. Conc. rat plasma, combined male and female) of 10 ng/mL. For the same molecule, the concentration at 0.5 h (both sexes, 1 mg/kg, Anatabine 1.0 mg/kg, male and female, 0.5 hr (1st 0.5 hr line), n=12, read-out: Avg. Conc. rat plasma, combined male and female) was 319 ng/mL, the concentration at 0.5 h (both sexes, 1 mg/kg, Anatabine 1.0 mg/kg, male and female, 0.5 hr (2nd 0.5 hr line), n=6, read-out: Avg. Conc. rat plasma, combined male and female) was 384 ng/mL and the concentration at 1 h [8] was 231 ng/mL. For the same molecule, the concentration at 2 h [8] was 143 ng/mL, the concentration at 4 h [8] was 51.5 ng/mL and the concentration at 6 h (both sexes, 1 mg/kg, Anatabine 1.0 mg/kg, male and female, 6 hr (1st 6 hr line), n=12, read-out: Avg. Conc. rat plasma, combined male and female) was 24.3 ng/mL. It also gave a concentration at 6 h (both sexes, 1 mg/kg, Anatabine 1.0 mg/kg, male and female, 6 hr (2nd 6 hr line), n=6, read-out: Avg. Conc. rat plasma, combined male and female) of 25 ng/mL, a concentration at 8 h (both sexes, 1 mg/kg, Anatabine 1.0 mg/kg, male and female, 8 hr, read-out: Avg. Conc. rat plasma, combined male and female) of 12.7 ng/mL and a half-life (both sexes, 0.1 mg/kg, anatabine 0.1 mg/kg single i.v., rat plasma, M + F, read-out: t1/2 (converted)) of 1.44 ± 0.48 h. For the same molecule, the half-life (both sexes, elimination half-life (t1/2), range over the anatabine treatment groups, anatabine 0.1-1.0 mg/kg single i.v., rats M + F) was 1.64 to 1.68 h and the concentration at 0.5 h (female, 0.1 mg/kg, Anatabine 0.1 mg/kg, female, 0.5 hr (1st 0.5 hr line), read-out: Avg. Conc. rat plasma) was 13 ng/mL.
